Molecules are shown by their SMILES.

The subject of experiment [1] is 5-HT2A, 5-HT2B and 5-HT2C serotonin receptors. Conditions: cited from earlier work.
The test system of experiment [2] is endogenous β1AR in untransfected HEK293s. In words: CRE-luc reporter assay on untransfected HEK293 cells. The format is cell-based, human. Conditions: 1 μM forskolin, non-transfected cells. From the text:
One read-out that can be employed to assess the functional activity of the resulting sera is the impact on cAMP signalling. The CRE-luc reporter assay was employed where the CRE response from activation of AC-cAMP-PKA pathway is the read-out.
The first interim bleeds were initially evaluated only on transfected cells to assess if any functional response could be observed at this stage of immunisation. […].
On the technique in general: In a reporter assay the amount or activity of a reporter protein is the signal.

Regarding `C[C@@H](N)Cc1c2ccoc2c(Br)c2ccoc12` [Bromo-DragonFLY], in experiment [1], the “potency for 5-HT2C receptors relative to 5-HT2A” value is on record as “twice as potent” and the “selectivity for 5-HT2A over 5-HT2B” value was “less than 5 ×”.

For `C=C[C@@]1(C)CC(=O)[C@]2(O)[C@@]3(C)[C@@H](O)CCC(C)(C)[C@@H]3[C@H](O)[C@H](OC(C)=O)[C@@]2(C)O1` [forskolin], the “CRE-luc response to forskolin stimulation” value in experiment [2] is ~20,000 RLU.

The record behind these values is patent US8900591B2, “Vaccines comprising mutant GPCRs with increased conformational stability relative to parent receptors” (Heptares Therapeutics Limited, priority 2010, dated 2014).
